According to ChEMBL document CHEMBL4043133, “Discovery of a novel B-cell lymphoma 6 (BCL6)-corepressor interaction inhibitor by utilizing structure-based drug design” (Bioorg Med Chem, 2017):
Values after ≈ are worked out from the molar mass of the structure shown.

Experiments:
[1] = molecular target: T1, BCoR-BCL6 (Homo sapiens, UniProt P41182)
Description: Inhibition of C-terminal biotin-labelled BCoR/wild-type BCL6 BTB domain (unknown origin) protein-protein interaction by ELISA

[2] = molecular target: T2, B-cell lymphoma 6 protein (Homo sapiens, UniProt P41182)
Description: Binding affinity to wild-type avi-tagged BCL6 BTB domain (unknown origin) by SPR analysis

[3] = Permeability of the compound at pH 7.4 at 10 umol/L after 3 hrs by PAMPA; format: physicochemical; settings: for Papp at 3 h, 10 µM: PAMPA, pH 7.4, read-out: permeability; for permeability: pampa, pH 7.4, 3 h, 10 µM
[4] = Aqueous solubility of the compound in aqueous buffer at pH 6.8 by UV-absorbance analysis; format: physicochemical
[5] = molecular target: T2, B-cell lymphoma 6 protein; assay: Displacement of A488-SMRT from BCL6 BTB domain (unknown origin) by fluorescence polarization assay
[6] = Cytotoxicity against human HepG2 cells assessed as intracellular ATP levels at 30 uM after 24 hrs by CellTiter-Glo assay relative to control; format: cell-based; settings: read-out: Activity
[7] = Oral bioavailability in mouse at 1 mg/kg administered as cassette dosing; format: ADME, organism-based; settings: in vivo
[8] = molecular target: T1, BCoR-BCL6; assay: Inhibition of recombinant human BCoR (112 to 753 residues) protein interaction with recombinant GAL4-fused BCL6 (5 to 129 residues) expressed in HEK293T cells measured after 20 hrs by luciferase reporter gene based mammalian two-hybrid assay; format: cell-based, HEK-293T
[9] = Total clearance in mouse at 1 mg/kg, po or 0.1 mg/kg, iv administered as cassette dosing; format: ADME, organism-based; settings: in vivo
[10] = Tmax in mouse at 1 mg/kg, po administered as cassette dosing; format: ADME, organism-based; settings: in vivo
[11] = AUC in mouse at 1 mg/kg, po administered as cassette dosing; format: ADME, organism-based; settings: in vivo
[12] = Mean residence time in mouse at 1 mg/kg, po administered as cassette dosing; format: ADME, organism-based; settings: in vivo
[13] = Cmax in mouse at 1 mg/kg, po administered as cassette dosing; format: ADME, organism-based; set-up: dose 1 mg/kg, route oral; settings: in vivo
[14] = Volume of distribution at steady state in mouse at 1 mg/kg, po or 0.1 mg/kg, iv administered as cassette dosing; format: ADME, organism-based; settings: in vivo, read-out: Vdss

Row | IC50 [1] | Papp at 3 h, 10 µM [3] | solubility [4] | SMILES | further results
1 | 4.5 µM |  |  | O=c1[nH]c2ccc(Nc3ccc([N+](=O)[O-])cc3Cl)cc2[nH]1 | Kd [2]: 5 µM
2 | 83 µM |  |  | O=c1[nH]c2ccc(Nc3ccc([N+](=O)[O-])cc3Br)cc2[nH]1 | 
3 | > 300 µM |  |  | O=c1[nH]c2ccc(Nc3ccc([N+](=O)[O-])cc3C(F)(F)F)cc2[nH]1 | 
4 | 43 µM |  |  | NC(=O)c1ccc(Nc2ccc3[nH]c(=O)[nH]c3c2)c(Cl)c1 | 
5 | 4.3 µM |  |  | N#Cc1cc([N+](=O)[O-])ccc1Nc1ccc2[nH]c(=O)[nH]c2c1 | 
6 | 62 µM |  |  | O=C(O)c1ccc(Nc2ccc3[nH]c(=O)[nH]c3c2)c(Cl)c1 | 
7 | 110 µM |  |  | N#Cc1ccc(Nc2ccc3[nH]c(=O)[nH]c3c2)c(Cl)c1 [TP-021n] | 

Continued, compound first:

Row | SMILES | IC50 [1] | Papp at 3 h, 10 µM [3] | solubility [4] | further results
8 | Nc1cc(Nc2ccccc2)c2nonc2c1[N+](=O)[O-] | 69 µM |  |  | 
9 | CCOC(=O)CCNc1cc(Nc2ccc3[nH]c(=O)[nH]c3c2)c(Cl)cc1[N+](=O)[O-] | 0.43 µM | 15.1 ×10⁻⁶ cm/s | 0.42 µg/mL (≈ 1 µM) | 
10 | O=C(O)CC(C(=O)O)N1C(=O)/C(=C2/C(=O)Nc3ccc(Br)cc32)SC1=S (centres undefined) | 200 µM |  |  | IC50 [5]: 212 µM
11 | O=c1[nH]c2ccc(Nc3cc(OC4CCOCC4)c([N+](=O)[O-])cc3Cl)cc2[nH]1 | 0.22 µM | 4.5 ×10⁻⁶ cm/s | 18 µg/mL (≈ 44.5 µM) | viability at 24 h, 30 µM [6]: 100%
12 | O=C1CCc2cc(Nc3cc(OC4CCOCC4)c([N+](=O)[O-])cc3Cl)ccc2N1 | 0.1 µM | 20.6 ×10⁻⁶ cm/s | 12 µg/mL (≈ 28.7 µM) | bioavailability [7]: 79.9%; viability at 24 h, 30 µM [6]: 83%; IC50 [8]: 0.72 µM; clearance [9]: 10.5 mL/min/kg; Tmax [10]: 2 h; AUC [11]: 1270 ng·h/mL; MRT [12]: 3.3 h; Cmax [13]: 233 ng/mL; Vd [14]: 1.51 L/kg
13 | O=C1Cc2cc(Nc3cc(OC4CCOCC4)c([N+](=O)[O-])cc3Cl)ccc2N1 |  | 28.8 ×10⁻⁶ cm/s | 12 µg/mL (≈ 29.7 µM) | viability at 24 h, 30 µM [6]: 99%
14 | O=c1[nH]c2ccc(Nc3cc(NC4CCOCC4)c([N+](=O)[O-])cc3Cl)cc2[nH]1 | 0.13 µM | 10.1 ×10⁻⁶ cm/s | 0.61 µg/mL (≈ 1.51 µM) | 
15 | COC(=O)c1ccc(Nc2ccc3[nH]c(=O)[nH]c3c2)c(Cl)c1 | 8.6 µM |  |  | 
16 | O=C(O)CCNc1cc(Nc2ccc3[nH]c(=O)[nH]c3c2)c(Cl)cc1[N+](=O)[O-] | 0.13 µM |  | > 72 µg/mL | permeability [3]: Impermeable
17 | O=c1[nH]c2ccc(Nc3cc(NCCCO)c([N+](=O)[O-])cc3Cl)cc2[nH]1 | 0.24 µM |  | 0.09 µg/mL (≈ 0.238 µM) | IC50 [8]: > 100 µM; permeability [3]: Impermeable
18 | O=[N+]([O-])c1c(NCCCO)cc(Nc2ccc(F)cc2)c2nonc12 | 14 µM |  |  | Kd [2]: 24 µM
19 | O=c1[nH]c2ccc(Nc3cc(NCc4cccnc4)c([N+](=O)[O-])cc3Cl)cc2[nH]1 | 0.15 µM | 14.7 ×10⁻⁶ cm/s | < 0.23 µg/mL | 
